# Test results published in patent US10085958B2, “Bromfenac bioavailability” (BAUSCH & LOMB PHARMA HOLDINGS CORP., priority 2011, dated 2018).
# Several values for one entry are separate records, joined by “and”; a condition that tells them apart may be missing. Equal values may be shown once. Read-outs that look alike come from different tables or passages of the source.
# Tests used:
# [1] = Twenty-four hour ocular pharmacokinetics of ^14C-labeled bromfenac following topical instillation; assay type: in vivo, New Zealand White rabbit
# Description: Twenty-four hour ocular pharmacokinetics of a formulation of ^14C-labeled bromfenac following topical instillation in New Zealand White rabbit eyes was evaluated. ^14C-labeled bromfenac was analyzed to verify the radioactive purity prior to use. Dosing solutions were prepared and analyzed after dosing to confirm the radiochemical purity of the dosing solution. The radioactive concentration of the dosing solutions was calculated by liquid scintillation counting (LSC). Treatment parameters are summarized below:
# On Day 1, 50 μL of the dosing solution was topically instilled into both eyes of each animal. Animals were weighed at randomization and prior to dosing on Day 1. Animals were euthanized by an intravenous injection of a commercial euthanasia solution at 1 hour±5 minutes, 2 hours±15 minutes, 4 hours±15 minutes, 8 hours±15 minutes, 12 hours±15 minutes, or 24 hours±15 minutes following dosing. After euthanasia, each eye was rinsed with normal saline. Aqueous humor was collected from both eyes and the weight was recorded. The globes were enucleated and frozen in liquid nitrogen. The globes were stored at ≤−70° C. prior to dissection. The iris/ciliary body, lens, vitreous, retina, choroid, sclera, conjunctiva, and cornea were collected from each eye, weighed, and stored at ≤−15° C. prior to analysis. Aqueous humor samples were stored at ≤−15° C. until analyzed.
# All radioactivity measurements were performed using a Beckman Liquid Scintillation Spectrometer. The iris/ciliary body, lens, retina, choroid, sclera, conjunctiva, and cornea from each eye were weighed into combustion cones and combusted. Duplicate aliquots of each aqueous humor sample and each vitreous humor sample were transferred to LSC vials using Insta-Gel as the scintillation fluid and the amount of radioactivity was determined.
# The dosing solution was prepared by weighing 2.41 mg of ^14C-labeled bromfenac sodium and dissolving into 3 mL diluent to achieve a non-radioactive concentration of 0.7 mg/mL (0.07% w/v) bromfenac free acid, a radioactive concentration of 129.7 μCi/mL, and a pH of 7.8.
# On Day 1, 50 μL of the dosing solution was topically instilled into both eyes of each animal. The dosing solution was instilled into the conjunctival sac using a calibrated pipette, and the eyelid was held closed for 5-10 seconds following the dose. Any dosing solution found at the margin of the eyelid after dosing was recovered with a Lasik spear. The time of each dose administration was recorded.
# Animals were euthanized by an intravenous injection of a commercial euthanasia solution at 1 hour±5 minutes, 2 hours±15 minutes, 4 hours±15 minutes, 8 hours±15 minutes, 12 hours±15 minutes, or 24 hours±15 minutes following dosing.
# After euthanasia, each eye was rinsed with normal saline. Aqueous humor was collected from both eyes and the weight was recorded. The globes were enucleated and frozen in liquid nitrogen. The globes were stored at ≤−70° C. prior to dissection. The iris/ciliary body, lens, vitreous, retina, choroid, sclera, conjunctiva, and cornea were collected from each eye, weighed, and stored at ≤−15° C. prior to analysis. The start time of necropsy was recorded. Aqueous humor samples were stored at ≤−15° C. until analyzed.
# The iris/ciliary body, lens, retina, choroid, sclera, conjunctiva, and cornea from each eye were weighed into combustion cones and combusted with the exception of the left eye from Animal No. 731. The retina, choroid, and cornea from this eye were lost during processing and could not be recovered. No radioactivity data is available for these tissues.
# Combusted samples were trapped in […] (RJ Harvey) present in LSC vials and the amount of radioactivity determined by LSC. Duplicate aliquots of each aqueous humor sample (approximately 25 μL) were transferred to LSC vials and the amount of radioactivity was determined by LSC using Insta-Gel as the scintillation fluid. […]
# [2] = assay type: in vivo; settings: for Mortality/Morbidity: animals found dead or euthanized prior to scheduled euthanasia/number in group
# [3] = Group A, 1 hr. post-dose, 0.07% pH 7.8, 50 μL per eye topical
# [4] = Group B, 2 hr. post-dose, 0.07% pH 7.8, 50 μL per eye topical
# [5] = Group C, 4 hr. post-dose, 0.07% pH 7.8, 50 μL per eye topical
# [6] = Group D, 8 hr. post-dose, 0.07% pH 7.8, 50 μL per eye topical
structure (smiles),measurement,setting,value
Nc1c(CC(=O)O)cccc1C(=O)c1ccc(Br)cc1 [^14C-labeled Bromfenac],Radioactivity detected by LSC in the lens and the vitreous humor,[1]; 24 hour study period,very low and close to background values
same,"Radioactive residues, Total of eye tissues, Mean",[1]; [3],1.187 Percent Dose
same,"Radioactive residues, Total of eye tissues, single eyes OD/OS",[1]; [3],0.954 Percent Dose and 1.172 Percent Dose and 1.011 Percent Dose and 1.423 Percent Dose and 1.185 Percent Dose and 1.374 Percent Dose
same,"Radioactive residues, Total of eye tissues, Mean",[1]; [4],0.867 Percent Dose
same,"Radioactive residues, Total of eye tissues, single eyes OD/OS",[1]; [4],0.923 Percent Dose and 0.762 Percent Dose and 0.782 Percent Dose and 1.246 Percent Dose and 0.725 Percent Dose and 0.761 Percent Dose
same,"Radioactive residues in Conjunctiva, Mean",[1]; [5],0.142 Percent Dose
same,"Radioactive residues, Total of eye tissues, Mean",[1]; [5],0.550 Percent Dose
same,"Radioactive residues in Cornea, Mean",[1]; [6],0.471 ppm (μg-eq/g)
same,"Radioactive residues, Total of eye tissues, Mean",[1]; [6],0.228 Percent Dose
same,"Radioactive residues, Total of eye tissues, Mean","[1]; Group E, 12 hr. post-dose, 0.07% pH 7.8, 50 μL per eye topical",0.107 Percent Dose
same,"Radioactive residues, Total of eye tissues, Mean","[1]; Group F, 24 hr. post-dose, 0.07% pH 7.8, 50 μL per eye topical",0.034 Percent Dose
same,Tissues with the highest concentrations of drug-derived radioactivity,"[1]; mean ppm (μg/g), 24 hour study period","cornea, conjunctiva, and sclera"
same,Mortality/Morbidity,"[2]; Group A, necropsy 1 hour post-dose",0/3
same,Mortality/Morbidity,"[2]; Group B, necropsy 2 hours post-dose",0/3
same,Mortality/Morbidity,"[2]; Group C, necropsy 4 hours post-dose",0/3
same,Mortality/Morbidity,"[2]; Group D, necropsy 8 hours post-dose",0/3
same,Mortality/Morbidity,"[2]; Group E, necropsy 12 hours post-dose",0/3
same,Mortality/Morbidity,"[2]; Group F, necropsy 24 hours post-dose",0/3
same,"Mortality, whole study","[2]; all groups, up to 24 hours after 50 μL 0.07% per eye",no mortality
